Tests used:
[1] = test system: non-small cell lung cancer cells A549; test: Cell viability reflected by cellular mechanical force (cellular mechanical force detection device); type: cell-based
Text: This example specifically provides application of cellular physical information acquired by the characterization system for cell/multicellular aggregate interaction described in any one of examples 10 to 12 or the cellular mechanical force detection method described in example 14 in monitoring cell viability.
(§1) Please refer to FIG. 40, FIG. 41 and FIG. 42. FIG. 40 is a schematic diagram of the operation process of the cell viability detection method; FIG. 41 is a comparison diagram of cell viability measured by MTT method and cellular mechanical force measured by the device or system or method of the present invention after A549 cells are treated with different doses of 5FU for 24 h; FIG. 42 is a comparison diagram of cell viability measured by MTT method and cellular mechanical force measured by the device or system or method of the present invention after A549 cells are treated with different doses of 5FU for different times.
(§2) Specifically, in this example, non-small cell lung cancer cells A549 are cultured on multiple cellular mechanical force detection devices, treated with different doses of the cell proliferation inhibitory drug 5-fluorouracil (5-FU), and cellular mechanical force at different time points is monitored by the characterization system for cell/multicellular aggregate interaction described in any one of examples 10 to 12 or the cellular mechanical force detection method described in example 14. Cell proliferation and cytotoxicity at different time points are monitored by CCK-8 kit, and cell viability measured by MTT assay is used as a control group to obtain data in FIGS. 41 and 42.

[2] = test system: non-small cell lung cancer cells A549; test: Cell viability measured by MTT assay (control method); type: cell-based
Experimental: as §1, §2

[3] = different doses and times of treatment (FIGS. 41 and 42)

O=c1[nH]cc(F)c(=O)[nH]1 [5FU, 5-fluorouracil]
cell viability reflected by the cellular mechanical force [1, 3]: gradually decreasing trend in a dose-dependent manner
reduction range of cell viability reflected by mechanical force ([1]; different doses, 24 h, compared with control group DMSO (FIG. 41)): larger than that reflected by the traditional MTT assay
time at which a significant decreasing trend of cellular mechanical force can be observed ([1]; treatment dose of 0.5 μM (FIG. 42)): 6 h
time at which a significant decreasing trend of cellular mechanical force can be observed ([1]; treatment dose of 1 μM (FIG. 42)): 3 h
cell viability measured by the MTT assay [2, 3]: gradually decreasing trend in a dose-dependent manner
change in cell viability measured by the MTT method ([2]; within 12 h of treatment (FIG. 42)): not obvious
